Columns and labels:
[1] = Antioxidant activity (DPPH, in vitro); assay type: biochemical; details: DPPH 0.2 mM; lactic acid bacteria suspension 1×10^8 CFU/ml; 37° C. 20 min
Experimental: DPPH (2,2-Diphenyl-1-picrylhydrazyl) was dissolved in ethanol to a concentration of 0.2 mM to prepare DPPH solution. Lactic acid bacteria suspension (1×10^8 CFU/ml) or vitamin C solution (1 g/ml) was added to 0.1 ml of the above DPPH solution and incubated at 37° C. for 20 min. The culture was centrifuged at 3000 rpm for 5 min to obtain a supernatant. The absorbance of the supernatant was then measured at 517 nm and the antioxidant activity of the lactic acid bacteria was calculated.

TNF-α = TNF-α expression in LPS-treated macrophages (ELISA); assay type: cell-based, C57BL/6 mice; details: macrophages treated with lactic acid bacteria and LPS for 24 hours
Experimental: (§1) C57BL/6 mice (male, 6 weeks old, 20-23 g) were subjected to an intraperitoneal injection of 2 ml of sterile 4% thioglycolate solution, and after 96 hours, the mice were anesthetized and injected with 8 ml of RPMI 1640 medium through the peritoneal cavity. Then, after 5-10 minutes, the RPMI medium (macrophages) in the mouse peritoneal cavity was extracted, centrifuged at 1000 g for 10 minutes, and washed again with RPMI 1640 medium twice. Macrophages were seeded in 24-well plates at a count of 0.5×10^6 in each well, and treated with lactic acid bacteria and LPS, an inflammatory response-inducing substance, for 24 hours. TNF-α and IL-10 cytokine expression amount in the culture supernatant was then measured by ELISA Kit.

IL-10 = IL-10 expression in LPS-treated macrophages (ELISA); assay type: cell-based, C57BL/6 mice; details: macrophages treated with lactic acid bacteria and LPS for 24 hours
Experimental: as §1

BDNF = BDNF expression in SH-SY5Y cells; assay type: cell-based; details: LPS 200 ng/ml; lactic acid bacteria 1×10^4 CFU/ml; 24 h
Experimental: (§2) SH-SY5Y cells obtained from the Korean Cell Line Bank were cultured in DMEM medium supplemented with 10% FBS and 1% antibiotics, and dispensed at 2×10^6 cells per well in a 12-well plate. Then, LPS (200 ng/ml) was added to each well along with lactic acid bacteria (1×10^4 CFU/ml) and incubated for 24 h. The cells and supernatants were collected, sonicated and centrifuged, and the amount of BDNF in the supernatant was measured by ELISA kit.

Neuropeptide Y (NPY) = Neuropeptide Y (NPY) expression in PC12 phaeochromocytoma cells; assay type: cell-based; details: LPS 200 ng/ml; lactic acid bacteria 1×10^4 CFU/ml; 24 hr
Experimental: as §2, with “PC12” for “SH-SY5Y”, “1×10^6” for “2×10^6”, “hr.” for “h.”, “NPY” for “BDNF”

Clostridium difficile = Clostridium difficile proliferation in gut microbiota (PCR); assay type: cell-based; details: human feces culture; lactic acid bacteria 1×10^6 CFU/mL; anaerobic 24 hr
Experimental: Fresh human feces were suspended in anaerobic medium (GAM, Nissui Pharmaceutical Co., Ltd., Japan) and allowed to stand for 10 min. The supernatant was diluted with 10,000-fold anaerobic medium, 0.05 mL of the dilution was transplanted into 5 mL of freshly made anaerobic medium, and lactic acid bacteria (1×10^6 CFU/mL) were implanted and incubated anaerobically for 24 hr. This culture medium was divided into two, one was centrifuged (5000 rpm, 20 minutes), the precipitated DNA was isolated using the QIAamp DNA stool mini kit (Qiagen, Germany), and Clostridium difficile (primer: forward, 5′-[…]-3′ (SEQ ID NO: 4); reverse, 5′-[…]-3′ (SEQ ID NO: 5) was quantified by PCR. The reaction product was first treated at 95° C. for 30 seconds, followed by 42 cycles of 5 seconds at 95° C. and 30 seconds at 72° C. for analysis. In addition, one culture medium was sonicated, centrifuged, and filter-sterilized, and the amount of LPS in the supernatant was measured using an ELISA kit.

gut microbiota = assay: LPS production in gut microbiota (ELISA); assay type: cell-based; details: human feces culture; lactic acid bacteria 1×10^6 CFU/mL; anaerobic 24 hr
Experimental: Fresh human feces were suspended in anaerobic medium (GAM, Nissui Pharmaceutical Co., Ltd., Japan) and allowed to stand for 10 min. The supernatant was diluted with 10,000-fold anaerobic medium, 0.05 mL of the dilution was transplanted into 5 mL of freshly made anaerobic medium, and lactic acid bacteria (1×10^6 CFU/mL) were implanted and incubated anaerobically for 24 hr.

Substance: Lactobacillus sakei NK198
- Antioxidant activity [1]: ++ (strongly (++; >60-90%))
- Macrophage Inhibition of TNF-α expression (TNF-α): − (not or less than 20% (−; <20%))
- Macrophage Induction of IL-10 expression (IL-10): − (not or less than 20% (−; <20%))
- SHSY5Y cell Induction of BDNF expression (BDNF): − (not or less than 20% (−; <20%))
- PC12 cell Induction of NPY expression (Neuropeptide Y (NPY)): + (weakly (+; >20-60%))
- Gut microbiota Inhibition of difficile bacteria proliferation (Clostridium difficile): − (not or less than 20% (−; <20%))
- Gut microbiota Inhibition of LPS production (gut microbiota): ++ (strongly (++; >60-90%))

Substance: Lactococcus graminis NK206
- Antioxidant activity [1]: + (weakly (+; >20-60%))
- Macrophage Inhibition of TNF-α expression (TNF-α): − (not or less than 20% (−; <20%))
- Macrophage Induction of IL-10 expression (IL-10): − (not or less than 20% (−; <20%))
- PC12 cell Induction of NPY expression (Neuropeptide Y (NPY)): + (weakly (+; >20-60%))

Substance: Lactobacillus gasseri NK188
- Antioxidant activity [1]: + (weakly (+; >20-60%))
- Macrophage Inhibition of TNF-α expression (TNF-α): + (weakly (+; >20-60%))
- Macrophage Induction of IL-10 expression (IL-10): + (weakly (+; >20-60%))
- SHSY5Y cell Induction of BDNF expression (BDNF): − (not or less than 20% (−; <20%))
- PC12 cell Induction of NPY expression (Neuropeptide Y (NPY)): − (not or less than 20% (−; <20%))
- Gut microbiota Inhibition of difficile bacteria proliferation (Clostridium difficile): + (weakly (+; >20-60%))

Substance: Lactobacillus johnsonii NK202
- Antioxidant activity [1]: + (weakly (+; >20-60%))
- Macrophage Inhibition of TNF-α expression (TNF-α): + (weakly (+; >20-60%))
- Macrophage Induction of IL-10 expression (IL-10): + (weakly (+; >20-60%))
- SHSY5Y cell Induction of BDNF expression (BDNF): + (weakly (+; >20-60%))
- PC12 cell Induction of NPY expression (Neuropeptide Y (NPY)): + (weakly (+; >20-60%))
- Gut microbiota Inhibition of difficile bacteria proliferation (Clostridium difficile): + (weakly (+; >20-60%))
- Gut microbiota Inhibition of LPS production (gut microbiota): + (weakly (+; >20-60%))

Substance: Lactobacillus johnsonii NK203
- Antioxidant activity [1]: + (weakly (+; >20-60%))
- Macrophage Inhibition of TNF-α expression (TNF-α): + (weakly (+; >20-60%))
- Macrophage Induction of IL-10 expression (IL-10): + (weakly (+; >20-60%))
- SHSY5Y cell Induction of BDNF expression (BDNF): − (not or less than 20% (−; <20%))
- PC12 cell Induction of NPY expression (Neuropeptide Y (NPY)): − (not or less than 20% (−; <20%))
- Gut microbiota Inhibition of difficile bacteria proliferation (Clostridium difficile): − (not or less than 20% (−; <20%))
- Gut microbiota Inhibition of LPS production (gut microbiota): − (not or less than 20% (−; <20%))

Substance: Bifidobacterium bifidum NK223
- Antioxidant activity [1]: + (weakly (+; >20-60%))
- Macrophage Inhibition of TNF-α expression (TNF-α): + (weakly (+; >20-60%))
- Macrophage Induction of IL-10 expression (IL-10): + (weakly (+; >20-60%))
- SHSY5Y cell Induction of BDNF expression (BDNF): + (weakly (+; >20-60%))
- PC12 cell Induction of NPY expression (Neuropeptide Y (NPY)): − (not or less than 20% (−; <20%))
- Gut microbiota Inhibition of difficile bacteria proliferation (Clostridium difficile): − (not or less than 20% (−; <20%))
- Gut microbiota Inhibition of LPS production (gut microbiota): − (not or less than 20% (−; <20%))

Substance: Bifidobacterium pseudocatenulatum NK228
- Antioxidant activity [1]: + (weakly (+; >20-60%))
- Macrophage Inhibition of TNF-α expression (TNF-α): − (not or less than 20% (−; <20%))
- Macrophage Induction of IL-10 expression (IL-10): − (not or less than 20% (−; <20%))
- SHSY5Y cell Induction of BDNF expression (BDNF): + (weakly (+; >20-60%))
- PC12 cell Induction of NPY expression (Neuropeptide Y (NPY)): + (weakly (+; >20-60%))
- Gut microbiota Inhibition of difficile bacteria proliferation (Clostridium difficile): − (not or less than 20% (−; <20%))
- Gut microbiota Inhibition of LPS production (gut microbiota): ++ (strongly (++; >60-90%))

Substance: Lactobacillus paracasei NK189
- Antioxidant activity [1]: + (weakly (+; >20-60%))
- Macrophage Inhibition of TNF-α expression (TNF-α): + (weakly (+; >20-60%))
- Macrophage Induction of IL-10 expression (IL-10): − (not or less than 20% (−; <20%))
- SHSY5Y cell Induction of BDNF expression (BDNF): − (not or less than 20% (−; <20%))
- PC12 cell Induction of NPY expression (Neuropeptide Y (NPY)): − (not or less than 20% (−; <20%))
- Gut microbiota Inhibition of difficile bacteria proliferation (Clostridium difficile): + (weakly (+; >20-60%))
- Gut microbiota Inhibition of LPS production (gut microbiota): + (weakly (+; >20-60%))

Substance: Bifidobacterium catenulatum NK225
- Antioxidant activity [1]: + (weakly (+; >20-60%))
- Macrophage Inhibition of TNF-α expression (TNF-α): + (weakly (+; >20-60%))
- Macrophage Induction of IL-10 expression (IL-10): + (weakly (+; >20-60%))
- SHSY5Y cell Induction of BDNF expression (BDNF): − (not or less than 20% (−; <20%))
- PC12 cell Induction of NPY expression (Neuropeptide Y (NPY)): − (not or less than 20% (−; <20%))
- Gut microbiota Inhibition of difficile bacteria proliferation (Clostridium difficile): + (weakly (+; >20-60%))
- Gut microbiota Inhibition of LPS production (gut microbiota): − (not or less than 20% (−; <20%))

Substance: Bifidobacterium longum NK217
- Antioxidant activity [1]: + (weakly (+; >20-60%))
- Macrophage Inhibition of TNF-α expression (TNF-α): + (weakly (+; >20-60%))
- SHSY5Y cell Induction of BDNF expression (BDNF): − (not or less than 20% (−; <20%))
- PC12 cell Induction of NPY expression (Neuropeptide Y (NPY)): − (not or less than 20% (−; <20%))
- Gut microbiota Inhibition of difficile bacteria proliferation (Clostridium difficile): − (not or less than 20% (−; <20%))
- Gut microbiota Inhibition of LPS production (gut microbiota): − (not or less than 20% (−; <20%))

Substance: Lactobacillus paracasei NK191
- Antioxidant activity [1]: + (weakly (+; >20-60%))
- Macrophage Inhibition of TNF-α expression (TNF-α): − (not or less than 20% (−; <20%))
- Macrophage Induction of IL-10 expression (IL-10): + (weakly (+; >20-60%))
- SHSY5Y cell Induction of BDNF expression (BDNF): + (weakly (+; >20-60%))
- PC12 cell Induction of NPY expression (Neuropeptide Y (NPY)): + (weakly (+; >20-60%))
- Gut microbiota Inhibition of difficile bacteria proliferation (Clostridium difficile): − (not or less than 20% (−; <20%))

Substance: Lactobacillus sakei NK199
- Antioxidant activity [1]: + (weakly (+; >20-60%))
- Macrophage Inhibition of TNF-α expression (TNF-α): + (weakly (+; >20-60%))
- SHSY5Y cell Induction of BDNF expression (BDNF): − (not or less than 20% (−; <20%))
- PC12 cell Induction of NPY expression (Neuropeptide Y (NPY)): − (not or less than 20% (−; <20%))
- Gut microbiota Inhibition of difficile bacteria proliferation (Clostridium difficile): − (not or less than 20% (−; <20%))
- Gut microbiota Inhibition of LPS production (gut microbiota): − (not or less than 20% (−; <20%))

Substance: Lactobacillus paracasei NK192
- Antioxidant activity [1]: ++ (strongly (++; >60-90%))
- Macrophage Inhibition of TNF-α expression (TNF-α): − (not or less than 20% (−; <20%))
- Macrophage Induction of IL-10 expression (IL-10): − (not or less than 20% (−; <20%))
- SHSY5Y cell Induction of BDNF expression (BDNF): − (not or less than 20% (−; <20%))
- PC12 cell Induction of NPY expression (Neuropeptide Y (NPY)): − (not or less than 20% (−; <20%))
- Gut microbiota Inhibition of difficile bacteria proliferation (Clostridium difficile): − (not or less than 20% (−; <20%))

Substance: Lactobacillus paracasei NK190
- Antioxidant activity [1]: + (weakly (+; >20-60%))
- Macrophage Inhibition of TNF-α expression (TNF-α): − (not or less than 20% (−; <20%))
- Macrophage Induction of IL-10 expression (IL-10): − (not or less than 20% (−; <20%))
- SHSY5Y cell Induction of BDNF expression (BDNF): − (not or less than 20% (−; <20%))
- PC12 cell Induction of NPY expression (Neuropeptide Y (NPY)): + (weakly (+; >20-60%))
- Gut microbiota Inhibition of difficile bacteria proliferation (Clostridium difficile): + (weakly (+; >20-60%))

Substance: Bifidobacterium pseudocatenulatum NK229
- Antioxidant activity [1]: + (weakly (+; >20-60%))
- Macrophage Inhibition of TNF-α expression (TNF-α): + (weakly (+; >20-60%))
- SHSY5Y cell Induction of BDNF expression (BDNF): + (weakly (+; >20-60%))
- PC12 cell Induction of NPY expression (Neuropeptide Y (NPY)): − (not or less than 20% (−; <20%))
- Gut microbiota Inhibition of difficile bacteria proliferation (Clostridium difficile): − (not or less than 20% (−; <20%))
- Gut microbiota Inhibition of LPS production (gut microbiota): − (not or less than 20% (−; <20%))

Substance: Lactococcus graminis NK207
- Antioxidant activity [1]: − (not or less than 20% (−; <20%))
- SHSY5Y cell Induction of BDNF expression (BDNF): − (not or less than 20% (−; <20%))
- PC12 cell Induction of NPY expression (Neuropeptide Y (NPY)): − (not or less than 20% (−; <20%))
- Gut microbiota Inhibition of difficile bacteria proliferation (Clostridium difficile): + (weakly (+; >20-60%))
- Gut microbiota Inhibition of LPS production (gut microbiota): + (weakly (+; >20-60%))
